Results as given in ChEMBL document CHEMBL1909046, “DrugMatrix in vitro pharmacology data”.

Legend:
[1] = target: T1, Alpha-1B adrenergic receptor (Rattus norvegicus, UniProt P15823); test: DRUGMATRIX: Alpha-1B adrenergic receptor radioligand binding (ligand: prazosin); format: cell membranes, Wistar, Liver, Membrane; conditions: Not Active = under 50% inhibition at 10 µM
T1 sequence (P15823 whole entry): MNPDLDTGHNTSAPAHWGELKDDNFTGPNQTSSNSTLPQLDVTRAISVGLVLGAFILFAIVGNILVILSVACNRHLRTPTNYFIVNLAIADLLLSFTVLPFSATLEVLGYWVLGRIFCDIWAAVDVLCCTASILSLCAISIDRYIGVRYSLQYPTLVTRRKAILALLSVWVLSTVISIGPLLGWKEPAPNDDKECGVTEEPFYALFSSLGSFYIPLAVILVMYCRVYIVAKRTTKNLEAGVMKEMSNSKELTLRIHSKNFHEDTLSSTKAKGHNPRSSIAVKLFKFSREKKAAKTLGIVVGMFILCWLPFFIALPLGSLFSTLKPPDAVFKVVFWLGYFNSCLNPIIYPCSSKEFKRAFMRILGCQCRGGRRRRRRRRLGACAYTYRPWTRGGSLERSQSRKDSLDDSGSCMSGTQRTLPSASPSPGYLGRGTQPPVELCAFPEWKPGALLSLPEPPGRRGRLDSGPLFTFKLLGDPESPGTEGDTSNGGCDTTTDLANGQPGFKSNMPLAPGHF

[2] = DRUGMATRIX: Glutamate, NMDA, Phencyclidine radioligand binding (ligand: [3H] TCP); format: cell membranes, Rattus norvegicus, Wistar, Cerebral cortex, Membrane; conditions: Not Active = under 50% inhibition at 10 µM
[3] = DRUGMATRIX: Leukotriene, BLT (LTB4) radioligand binding (ligand: [3H]LTB4); format: cell membranes, Membrane; conditions: u-937; Not Active = under 50% inhibition at 10 µM
[4] = target: Kappa-type opioid receptor (Homo sapiens, UniProt P41145); test: DRUGMATRIX: Opiate kappa (OP2, KOP) radioligand binding (ligand: [3H] Diprenorphine); format: cell membranes, HEK293, Membrane; conditions: hek293; Not Active = under 50% inhibition at 10 µM
Sequence of Kappa-type opioid receptor (P41145 whole entry): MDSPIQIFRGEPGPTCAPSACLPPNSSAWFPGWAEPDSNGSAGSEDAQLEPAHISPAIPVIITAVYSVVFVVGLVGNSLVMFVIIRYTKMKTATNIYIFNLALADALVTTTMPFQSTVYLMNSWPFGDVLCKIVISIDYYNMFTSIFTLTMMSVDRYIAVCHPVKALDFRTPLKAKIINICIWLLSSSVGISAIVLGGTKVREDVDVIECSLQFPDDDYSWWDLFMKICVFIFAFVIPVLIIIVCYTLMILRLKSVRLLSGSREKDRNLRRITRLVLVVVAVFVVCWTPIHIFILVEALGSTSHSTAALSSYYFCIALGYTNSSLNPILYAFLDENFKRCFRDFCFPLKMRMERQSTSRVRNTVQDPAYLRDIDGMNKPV

Caspase-1 = target: T2, Caspase-1 (Homo sapiens, UniProt P29466); set-up: species or system Escherichia coli;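 note: Caspase-1 enzyme inhibition assay with a peptide substrate; in other assays of this panel Not Active means under 50% inhibition at 10 µM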
T2 sequence (P29466 whole entry): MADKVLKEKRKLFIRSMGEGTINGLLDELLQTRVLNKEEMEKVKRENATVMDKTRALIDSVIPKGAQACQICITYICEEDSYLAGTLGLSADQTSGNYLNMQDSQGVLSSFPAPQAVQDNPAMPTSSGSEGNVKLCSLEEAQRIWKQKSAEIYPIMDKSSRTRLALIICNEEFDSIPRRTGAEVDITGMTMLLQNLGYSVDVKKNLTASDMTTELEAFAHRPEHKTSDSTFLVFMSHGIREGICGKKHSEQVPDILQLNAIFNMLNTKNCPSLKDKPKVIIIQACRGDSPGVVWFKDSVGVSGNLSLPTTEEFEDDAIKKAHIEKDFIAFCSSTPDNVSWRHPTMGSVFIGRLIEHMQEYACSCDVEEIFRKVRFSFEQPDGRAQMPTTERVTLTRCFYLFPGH

[5] = DRUGMATRIX: Tumor Necrosis Factor (TNF), Non-Selective radioligand binding (ligand: [125I] TNF-alpha); format: cell membranes, Membrane; conditions: u-937; Not Active = under 50% inhibition at 10 µM
[6] = target: Aldo-keto reductase family 1 member B1 (Rattus norvegicus, UniProt P07943); format: tissue-based, Lens of camera-type eye;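 note: inhibition of aldose reductase enzyme activity, measured with DL-glyceraldehyde as the substrate; in other assays of this panel Not Active means under 50% inhibition at 10 µM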

Structure (SMILES)	IC50 [1]	IC50 [2]	Ki [2]	IC50 [3]	Ki [3]	IC50 [4]	IC50 (Caspase-1)	IC50 [5]	Ki [5]	IC50 [6]	IC50 ([1]; read-out: IC50) [µM]	Ki ([1]; read-out: Ki) [µM]	IC50 ([2]; read-out: IC50) [µM]	Ki ([2]; read-out: Ki) [µM]
C[C@H]1C[C@@H]2[C@H]([C@@H](O)C[C@@]3(C)[C@H]2CC[C@]3(O)C(=O)CO)[C@@]2(C)C=CC(=O)C=C12 [METHYLPREDNISOLONE]	Not Active	Not Active	Not Active	Not Active	Not Active	Not Active	Not Active	Not Active	Not Active	Not Active				
N#Cc1ccc(C(c2ccc(C#N)cc2)n2cncn2)cc1 [LETROZOLE]	Not Active	Not Active	Not Active	Not Active	Not Active	Not Active	Not Active	Not Active	Not Active	Not Active				
COc1cc2nc(N3CCN(C(=O)C4CCCO4)CC3)nc(N)c2cc1OC (stereo unspecified) [TERAZOSIN]		Not Active	Not Active	Not Active	Not Active	Not Active	Not Active	Not Active	Not Active	Not Active	0.00603	0.00333		
O=C(O)c1cn(-c2ccc(F)cc2)c2cc(N3CCNCC3)c(F)cc2c1=O [SARAFLOXACIN]	Not Active	Not Active	Not Active	Not Active	Not Active	Not Active	Not Active	Not Active	Not Active	Not Active				
CO[C@H]1/C=C/O[C@@]2(C)Oc3c(C)c(O)c4c(O)c(c(/C=N/N5CCN(C6CCCC6)CC5)c(O)c4c3C2=O)NC(=O)/C(C)=C\C=C\[C@H](C)[C@H](O)[C@@H](C)[C@@H](O)[C@@H](C)[C@H](OC(C)=O)[C@@H]1C [RIFAPENTINE]	Not Active	Not Active	Not Active	Not Active	Not Active	Not Active	Not Active	Not Active	Not Active	Not Active				
CCCCOc1cc(CC2CNC(=O)N2)ccc1OC (stereo unspecified) [RO-201724]	Not Active	Not Active	Not Active	Not Active	Not Active	Not Active	Not Active	Not Active	Not Active	Not Active				
CCCCNc1ccc(C(=O)OCCN(C)C)cc1 [TETRACAINE]	Not Active	Not Active	Not Active	Not Active	Not Active	Not Active	Not Active	Not Active	Not Active	Not Active				
CCN(CC)CCNC(=O)c1cc(S(C)(=O)=O)ccc1OC [TIAPRIDE]	Not Active	Not Active	Not Active	Not Active	Not Active	Not Active	Not Active	Not Active	Not Active	Not Active				
O.O.O.O.O.O.[Cl-].[Cl-].[Sr+2] [STRONTIUM CHLORIDE HEXAHYDRATE]	Not Active	Not Active	Not Active	Not Active	Not Active	Not Active	Not Active	Not Active	Not Active	Not Active				
CNC1(c2ccccc2Cl)CCCCC1=O (stereo unspecified) [KETAMINE]	Not Active			Not Active	Not Active	Not Active	Not Active	Not Active	Not Active	Not Active			1.01	0.684
CCN(CC)CC(=O)Nc1c(C)cccc1C [LIDOCAINE]	Not Active	Not Active	Not Active	Not Active	Not Active	Not Active	Not Active	Not Active	Not Active	Not Active				
Nc1cc(N2CCCCC2)nc(N)[n+]1[O-] [MINOXIDIL]	Not Active	Not Active	Not Active	Not Active	Not Active	Not Active	Not Active	Not Active	Not Active	Not Active				
COc1c2occc2cc2ccc(=O)oc12 [METHOXSALEN]	Not Active	Not Active	Not Active	Not Active	Not Active	Not Active	Not Active	Not Active	Not Active	Not Active				
Cc1c(C)c2c(c(C)c1O)CCC(C)(CN1CCN(c3cc(N4CCCC4)nc(N4CCCC4)n3)CC1)O2 (stereo unspecified)	Not Active	Not Active	Not Active	Not Active	Not Active	Not Active	Not Active	Not Active	Not Active	Not Active				
CS(=O)(=O)c1ccc([C@@H](O)[C@@H](CO)NC(=O)C(Cl)Cl)cc1 [THIAMPHENICOL]	Not Active	Not Active	Not Active	Not Active	Not Active	Not Active	Not Active	Not Active	Not Active	Not Active				
Clc1ccccc1CN1CCc2sccc2C1 [TICLOPIDINE]	Not Active	Not Active	Not Active	Not Active	Not Active	Not Active	Not Active	Not Active	Not Active	Not Active				
CC(C)Oc1ccc2c(=O)c(-c3ccccc3)coc2c1 [IPRIFLAVONE]	Not Active	Not Active	Not Active	Not Active	Not Active	Not Active	Not Active	Not Active	Not Active	Not Active				
CCN1CCC[C@H]1CNC(=O)c1cc(S(N)(=O)=O)ccc1OC [LEVOSULPIRIDE]	Not Active	Not Active	Not Active	Not Active	Not Active	Not Active	Not Active	Not Active	Not Active	Not Active				
